Source: ChEMBL document CHEMBL1158343, “Synthesis, antimicrobial and antiviral evaluation of substituted imidazole derivatives” (Eur J Med Chem, 2009)
Values after ≈ are worked out from the molar mass of the structure shown.

Tested on: Vaccinia virus
Experiment: Antiviral activity against Vaccinia virus infected in human HEL cells assessed as reduction in virus-induced cytopathogenicity after 3 days
Type: functional, organism-based
Settings: Orthopoxvirus vaccinia, 72 h

| Compound | EC50 [µg/mL] |
| --- | --- |
| O=C(c1ccccc1Br)n1ccnc1-c1ccc(Cl)cc1 | > 100 |
| COc1ccc(-c2nccn2C(=O)c2ccc([N+](=O)[O-])cc2)cc1 | > 100 |
| O=C(c1ccccc1Br)n1ccnc1-c1ccc([N+](=O)[O-])cc1 | > 100 |
| NC(=O)c1ncn([C@@H]2O[C@H](CO)[C@@H](O)[C@H]2O)n1 [RIBAVIRIN] | > 250 |
| O=C(c1ccc([N+](=O)[O-])cc1)n1ccnc1-c1ccccc1[N+](=O)[O-] | > 100 |
| Nc1nc2c(ncn2COC(CO)CO)c(=O)[nH]1 [GANCICLOVIR] | > 100 |
| Nc1ccn(C[C@@H](CO)OCP(=O)(O)O)c(=O)n1.O.O [CIDOFOVIR] | 7 |
| COc1ccc(-c2nccn2C(=O)c2ccccc2Br)cc1 | > 100 |
| O=C(c1ccc([N+](=O)[O-])cc1)n1ccnc1-c1cccc([N+](=O)[O-])c1 | > 100 |
| O=C(c1ccccc1Br)n1ccnc1-c1cccc([N+](=O)[O-])c1 | > 100 |
| O=C(O)c1ccccc1-c1nccn1C(=O)c1ccc([N+](=O)[O-])cc1 | > 100 |
| O=C(c1ccccc1Br)n1ccnc1-c1ccccc1[N+](=O)[O-] | > 100 |
| O=c1[nH]c(=O)n([C@H]2C[C@H](O)[C@@H](CO)O2)cc1/C=C/Br [BRIVUDINE] | 5 (≈ 15 µM) |
| O=C(c1ccccc1Br)n1ccnc1-c1ccccc1Cl | > 100 |
| O=C(c1ccc([N+](=O)[O-])cc1)n1ccnc1-c1ccc([N+](=O)[O-])cc1 | 4 (≈ 11.8 µM) |
| O=C(c1ccc([N+](=O)[O-])cc1)n1ccnc1-c1ccccc1Cl | > 100 |
| O=C(c1ccc([N+](=O)[O-])cc1)n1ccnc1-c1cccc(Cl)c1 | 45 (≈ 137 µM) |
| O=C(c1ccc([N+](=O)[O-])cc1)n1ccnc1-c1ccc(Cl)cc1 | 2 (≈ 6.1 µM) |
